{
  "source": "patent US8658383B2",
  "about": "“Sweet taste receptor-expressing construct, cell body expressing the same, and utilization thereof” (T. Hasegawa Co., Ltd., priority 2009, dated 2014)",
  "target": "T1, human sweet taste receptor (hT1R2+hT1R3) (Homo sapiens, UniProt Q7RTX0+Q8TE23)",
  "T1 sequence (Q8TE23 20-839)": "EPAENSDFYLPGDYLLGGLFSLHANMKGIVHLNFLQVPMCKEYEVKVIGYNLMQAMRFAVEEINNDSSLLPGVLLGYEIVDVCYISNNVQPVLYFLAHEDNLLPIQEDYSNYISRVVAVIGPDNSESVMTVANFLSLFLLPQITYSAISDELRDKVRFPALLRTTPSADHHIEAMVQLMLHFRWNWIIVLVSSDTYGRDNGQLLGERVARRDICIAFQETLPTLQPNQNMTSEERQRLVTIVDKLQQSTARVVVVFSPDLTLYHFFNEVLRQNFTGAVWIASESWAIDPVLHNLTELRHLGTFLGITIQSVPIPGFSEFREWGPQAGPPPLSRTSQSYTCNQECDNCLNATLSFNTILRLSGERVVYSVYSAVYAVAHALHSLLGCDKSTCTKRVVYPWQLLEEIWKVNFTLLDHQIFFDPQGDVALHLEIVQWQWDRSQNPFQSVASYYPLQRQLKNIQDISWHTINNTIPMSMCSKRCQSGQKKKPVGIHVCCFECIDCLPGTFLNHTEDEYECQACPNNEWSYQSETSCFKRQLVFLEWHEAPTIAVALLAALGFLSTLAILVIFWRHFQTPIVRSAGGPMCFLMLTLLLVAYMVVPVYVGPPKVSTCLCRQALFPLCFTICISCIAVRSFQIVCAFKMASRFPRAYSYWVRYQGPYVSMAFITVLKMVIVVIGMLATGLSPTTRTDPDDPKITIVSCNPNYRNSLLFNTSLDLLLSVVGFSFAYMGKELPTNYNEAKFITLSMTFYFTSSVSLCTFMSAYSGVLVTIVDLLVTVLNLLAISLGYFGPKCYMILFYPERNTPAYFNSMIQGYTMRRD",
  "T1 sequence (Q7RTX0 21-852)": "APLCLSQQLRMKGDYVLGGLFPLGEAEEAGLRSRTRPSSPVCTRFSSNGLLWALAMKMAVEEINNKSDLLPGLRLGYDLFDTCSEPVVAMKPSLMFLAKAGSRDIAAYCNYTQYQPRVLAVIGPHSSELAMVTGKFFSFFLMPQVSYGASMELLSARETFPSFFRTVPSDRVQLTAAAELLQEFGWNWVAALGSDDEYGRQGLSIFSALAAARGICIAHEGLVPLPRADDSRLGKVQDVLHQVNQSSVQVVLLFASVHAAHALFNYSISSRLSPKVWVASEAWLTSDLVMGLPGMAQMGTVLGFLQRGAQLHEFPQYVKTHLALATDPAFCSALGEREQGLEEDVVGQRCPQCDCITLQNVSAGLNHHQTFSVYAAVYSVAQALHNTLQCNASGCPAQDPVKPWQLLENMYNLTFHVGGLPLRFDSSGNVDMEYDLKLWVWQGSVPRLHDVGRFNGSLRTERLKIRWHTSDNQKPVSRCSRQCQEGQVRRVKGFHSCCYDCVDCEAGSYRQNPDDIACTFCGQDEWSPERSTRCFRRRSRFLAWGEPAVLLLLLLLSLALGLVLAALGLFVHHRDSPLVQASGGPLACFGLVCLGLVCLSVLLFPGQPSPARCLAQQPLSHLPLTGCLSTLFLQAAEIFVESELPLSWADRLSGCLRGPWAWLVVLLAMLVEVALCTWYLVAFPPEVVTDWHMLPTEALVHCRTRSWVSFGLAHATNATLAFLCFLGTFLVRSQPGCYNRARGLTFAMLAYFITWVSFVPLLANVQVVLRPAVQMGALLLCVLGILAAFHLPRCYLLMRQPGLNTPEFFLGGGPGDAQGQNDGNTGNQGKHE",
  "assay": "Automated fluorescent calcium imaging (Fluo-4 AM, FlexStation 3) of cultured cell strain (A)",
  "type": "cell-based",
  "set-up": "The sweet taste receptor subunits T1R2 and T1R3 include an entire part of each subunit",
  "settings": "Average ± S.E., n = 2",
  "note": "Residues, ends and D or L forms follow the SMILES beside them.",
  "data": [
    {"smiles": "COC(=O)[C@H](Cc1ccccc1)NC(=O)[C@@H](N)CC(=O)O", "note": "[aspartame] (H-Asp-Phe-OMe)", "values": [
      {"measurement": "Change amount of fluorescent intensity (ΔF)", "setting": "aspartame 0.08 mM", "result": "4.8 ± 0.1"},
      {"measurement": "Change amount of fluorescent intensity (ΔF)", "setting": "aspartame 5 mM", "result": "31.1 ± 2.4"}
    ]}
  ]
}
